Consider one compound from patent US8124582B2, “Treatment of diabetes” (FibroGen, Inc., priority 2002, dated 2012).

The subject of one series is IGFBP-1. The series can be described thus: In vivo IGFBP-1 gene expression in kidney and liver (microarray). Further details: species or system Swiss Webster male mice. The settings on record: mice, oral gavage; time course; quantitatively different level between tissues; FIG. 3B. As for the experimental part:
(§1) To determine gene induction patterns over time, twenty four Swiss Webster male mice (30-32 g) were obtained from Simonsen, Inc. and treated by oral gavage with a 4 ml/kg volume of either 0.5% carboxymethyl cellulose (CMC; Sigma-Aldrich, St. Louis Mo.) (0 mg/kg/day) or […] compound B (25 mg/ml in 0.5% CMC) (100 mg/kg). At 4, 8, 16, 24, 48, or 72 hours after the final dose, animals were anesthetized with isoflurane. The mice were then sacrificed and tissue samples of kidney, liver, brain, lung, and heart were isolated and stored in RNALATER solution (Ambion) at −80° C.
(§2) RNA from tissues obtained from the experiments described above was isolated using the following protocol. A 50 mg section of each organ was diced, 875 μl of RLT buffer (RNEASY kit; Qiagen Inc., Valencia Calif.) was added, and the pieces were homogenized for about 20 seconds using a rotor-stator POLYTRON homogenizer (Kinematica, Inc., Cincinnati Ohio). […] The RNA was eluted into 80 μL of water and quantitated with RIBOGREEN reagent (Molecular Probes, Eugene Oreg.). […] The absorbance at 260 and 280 nm was measured to determine RNA purity and concentration.
(§3) Alternatively, tissue samples were diced and homogenized in TRIZOL reagent (Invitrogen Life Technologies, Carlsbad Calif.) using a rotor-stator POLYTRON homogenizer (Kinematica). […] The absorbance at 260 and 280 nm was measured to determine RNA purity and concentration. […]

Series [1] is described as follows: Body weight gain, organ weight and visceral fat after 14 days oral dosing. Format: in vivo, male Sprague Dawley rats. As for the experimental part: The effect of compounds of the present invention on weight loss and fat stores in animals was examined as follows. Fifty male Sprague Dawley rats (6-7 weeks old) obtained from Simonsen, Inc. were dosed with 0.5% CMC (Sigma-Aldrich) or compound B at 20, 60, 100, or 200 mg/kg body weight by oral gavage once daily for 14 consecutive days. Animals were monitored for changes in body weight and signs of overt toxicity and mortality. On day 15, following an overnight fast with water available ad libitum, animals were anesthetized with isoflurane. One whole blood sample of approximately 1 ml was collected into tubes containing EDTA for hematological analysis, and a second sample of approximately 1 ml was collected into a tube with no anticoagulant for serum chemistry analysis. Blood sample analyses were performed by IDEXX (West Sacramento, Calif.). Following blood collection, the diaphragm was incised and the animals were sacrificed. Macroscopic observations were recorded for each animal and the liver, kidneys, heart, spleen, lungs, stomach, small intestines, and large intestines were collected for histological assessment.

A further series relates to adrenomedullin. The series can be described thus: In vivo adrenomedullin mRNA expression (microarray). Further details: species or system Swiss Webster male mice. The settings on record: mice, heart, kidney, and lung. As for the experimental part:
as §1
For measurement of adrenomedullin mRNA expression, samples were prepared and were hybridized and analyzed as described above in Example 4.

The subject of series [2] is PFK-P, PFK-L, enolase-1, GluT-1, lactate dehydrogenase-1, aldolase-1, hexokinase-1. As to the kind of experiment: In vivo expression of genes encoding enzymes involved in glucose regulation (microarray, time course). The following applies: mice, 100 mg/kg oral gavage. Further details: species or system Swiss Webster male mice. As for the experimental part: as §1, §2, §3

Take `O=C(O)CNC(=O)c1nc(Cl)c2ccccc2c1O` [compound B, [(1-Chloro4-hydroxy-isoquinoline-3-carbonyl)-amino]-acetic acid]: the “IGFBP-1 expression in kidney and liver” value in the series on IGFBP-1 is recorded as “almost identical temporal induction”. The “relative heart weight, expressed as a fraction of the total body weight, compared to control” value in series [1] (rats, 100 mg/kg, p=0.036, one-way ANOVA/Tukey's test) was “significantly increased”. The weight gain result in series [1] (rats, 20, 60, 100, or 200 mg/kg oral gavage once daily for 14 days, FIG. 7A) is given as “dose-dependent retardation”. Further, the visceral fat entry in series [1] (rats, 20 to 200 mg/kg oral gavage 14 days, FIG. 8) is recorded as “dose-dependent reduction”. Further, the “visceral fat pads at higher doses” value in series [1] (rats, higher doses of compound, FIG. 8 bottom panel) is reported as “complete absence of fat pads”. Further, in series [1] (rats, oral gavage 14 days, FIG. 7B), the “absolute heart weight compared to control” value is reported as “no statistically significant difference”. For the same compound, the expression of adrenomedullin entry in the series on adrenomedullin (100 mg/kg oral gavage, FIG. 10B) was “increased in various tissues”. The “time within which adrenomedullin mRNA levels returned to control levels” value in the series on adrenomedullin (time course) is 16 to 24 h. Besides, the “expression of genes encoding enzymes involved in glucose regulation” value in series [2] (kidney, liver, lung, 4-72 hours after dose, FIGS. 2A-2C) is given as “increased in a coordinated fashion”. The “time after which most mRNA levels returned to control levels” value in series [2] (time course) was in the range of 24 to 48 h.
